This is an account of results in publication PMC12472586, “Leveraging Natural Compounds for Pancreatic Lipase Inhibition via Virtual Screening” (Pharmaceuticals, 2025).

The target of this experiment is T1, porcine pancreatic lipase (triacylglycerol acyl hydrolase; EC 3.1.1.3) (Sus scrofa, UniProt P00591).
T1 sequence (P00591 1-450): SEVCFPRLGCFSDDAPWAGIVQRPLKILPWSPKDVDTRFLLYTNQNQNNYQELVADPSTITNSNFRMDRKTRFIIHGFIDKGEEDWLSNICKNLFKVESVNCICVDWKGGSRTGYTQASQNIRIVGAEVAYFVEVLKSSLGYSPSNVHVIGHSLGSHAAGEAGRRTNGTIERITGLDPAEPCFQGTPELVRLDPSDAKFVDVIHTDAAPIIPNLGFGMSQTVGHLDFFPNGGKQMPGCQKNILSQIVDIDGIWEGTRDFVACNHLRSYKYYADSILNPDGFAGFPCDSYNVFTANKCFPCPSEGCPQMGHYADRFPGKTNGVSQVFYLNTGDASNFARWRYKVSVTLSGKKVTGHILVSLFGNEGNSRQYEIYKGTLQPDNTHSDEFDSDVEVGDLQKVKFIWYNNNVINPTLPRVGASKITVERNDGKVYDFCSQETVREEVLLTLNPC
Put plainly: In vitro pancreatic lipase inhibition, 4-nitrophenyl butyrate substrate. The class given is biochemical. The settings on record: means ± SD (n = 3), PBS pH 7.2, 37 °C, OD 405 nm. As for the experimental part:
The inhibition of PL was evaluated using a previously reported method.
The inhibition studies of porcine pancreatic lipase (triacylglycerol acyl hydrolase; EC 3.1.1.3) were performed employing 4-nitrophenyl butyrate as a substrate. The compounds were dissolved in MeOH at concentrations from 0.22 mM to 2.7 mM. […] Then, the substrate solution was added (10 μL of 3.2 mM in H2O:DMF, 70:30), and the plate was incubated and shaken for 30 min at 37 °C. The optical density values (OD) were acquired at 405 nm with a Synergy H1 microplate reader (BioTek, Bad Friedrichshall, Germany). The experiments were performed in triplicate, and the %inhibition was determined by the following equation:(1) %inhibition=ODcontrol−ODsample/ODcontrol× 100% where ODcontrol refers to the enzyme–substrate mixture, while ODsample corresponds to the enzyme–substrate mixture in the presence of the inhibitor.
OriginPro 2023 software (OriginLab Corp., Northampton, MA, USA) was adopted for statistical analysis. The regression coefficients were determined based on the analysis of variance (one-way ANOVA, significance level 0.01). A p-value < 0.01 was set as the threshold for significance for Tukey’s test.

Molecules are shown by their SMILES. Read-outs that look alike come from different tables or passages of the source.

Broadly, the IC50 is the concentration that inhibits the measured activity by half.

For `C/C(=C\COc1c2ccoc2cc2oc(=O)ccc12)CCC(O)C(C)(C)O` (centres unmarked) [Dihydroxybergamottin], the IC50 (read-out: IC50) was 84.5 ± 1.5 µM. Regarding `COc1cc([C@H]2c3cc(O)c(OC)cc3C[C@@H](CO)[C@@H]2CO)ccc1O` [Isolariciresinol], the IC50 result is “low micromolar range”. Besides, the IC50 (read-out: IC50) stood at 12.3 ± 1.2 µM. `Oc1ccc(/C=C/c2cc(O)cc3c2[C@@H](c2cc(O)cc(O)c2)[C@H](c2ccc(O)cc2)O3)cc1` [ε-Viniferin, Ɛ-Viniferin]: the IC50 result is “low micromolar range”. Also, the IC50 (read-out: IC50) came to 13.2 ± 0.6 µM.
